Assay results: publication PMC8764113 (Nature Communications, 2022)
Like-named read-outs stand apart in the source and are kept apart here. Each block holds one molecule with its values, some of them ahead of it.

Tests used:
[1] = system: PECPS protein expression in A. sinensis calli; details: 150 mM NaCl-treated calli
Method: GAPDH was used as internal reference. d Western blot quantification of the relative expression levels of PECPS by ImageJ and normalization to the protein levels of GAPDH. Data represent the mean ± SD (n = 3). Statistical analysis was performed with unpaired two-tailed Student’s t-tests. Significance is shown with asterisks: ****p < 0.0001, ***p < 0.001, **p < 0.01. Exact p-values and source data are provided in the source data file. Total protein was extracted from 100 mg of calli using Plant Total Protein Extraction Reagent (Invent, USA) according to the manufacturer’s instructions. The protein expression levels of PECPS were analyzed by Western blotting with an anti-PECPS antibody prepared in rabbits.

[2] = system: PECPS expression in A. sinensis calli; details: NaCl-treated calli
Method: Considering that PECs contain a phenylethyl moiety, 4-hydroxyphenylpropionyl-CoA, rather than p-coumaroyl-CoA, was deliberately selected as the starter substrate for the reaction with malonyl-CoA, a canonical chain extender for PKSs, and the recombinant PECPS. […] The construction of a C6–C5–C6 scaffold by coincubation of benzoyl-CoA, malonyl-CoA, and 4-hydroxyphenylpropionyl-CoA was attempted.

[3] = target: wild type PECPS (Aquilaria sinensis, UniProt A0A385MEG6); test: ITC binding to wild type PECPS; details: mean ± SD (n = 3)
Sequence of wild type PECPS (A0A385MEG6 entry or part of it): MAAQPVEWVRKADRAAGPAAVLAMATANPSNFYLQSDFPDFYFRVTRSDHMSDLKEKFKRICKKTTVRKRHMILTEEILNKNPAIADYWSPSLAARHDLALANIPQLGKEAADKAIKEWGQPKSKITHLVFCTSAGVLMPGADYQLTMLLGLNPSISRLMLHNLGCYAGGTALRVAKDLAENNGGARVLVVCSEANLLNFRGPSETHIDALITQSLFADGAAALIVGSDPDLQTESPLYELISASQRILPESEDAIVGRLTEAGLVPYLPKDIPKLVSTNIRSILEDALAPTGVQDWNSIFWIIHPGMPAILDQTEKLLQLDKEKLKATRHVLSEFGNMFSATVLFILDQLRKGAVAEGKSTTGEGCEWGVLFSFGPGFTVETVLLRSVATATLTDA
Method: (§1) ITC measurements of affinity (KD), stoichiometry (n) and apparent enthalpy change (ΔH°) were obtained using a Nano LV ITC calorimeter (TA Instruments). Samples for cell and injectant solutions were prepared in the same buffer (100 mM KPB, pH 7.5). All experiments were conducted at 37 °C with a stirring speed of 240 rpm and a sequence of 20 injections of 2.5 μL and 380 s delays between succeeding injections. The sample cell was filled with 47–85 μM protein solution (300 μl), while 1.09 mM 4-hydroxyphenylpropionyl-CoA (or 1.15 mM benzoyl-CoA) solution was placed in the syringe. The resulting data were processed with the standard NanoAnalyze software package (version 3.11.0), assuming the model of one type of binding site with an apparent stoichiometry close to 1:1. The first injection resulting in a heat change was disregarded in the later analysis. Titration experiments were performed in triplicate to show reproducibility. Control experiments confirmed that the heats of dilution caused by the reactant being titrated into buffer and the buffer into protein solution were negligible. The heats of dilution for the sample in the cell were subtracted from the final trace before integration with respect to time. The thermodynamic data obtained from the traces were averaged across three runs, and a standard deviation was calculated. Representative ITC thermograms and isotherm plots for experiments can be found in Supplementary Fig. 35.

[4] = system: wild type N. benthamiana leaves; test: Infiltration of C6-C5-C6 substrates into wild type N. benthamiana leaves, LC-MS; format: in vivo, Nicotiana benthamiana
[5] = system: PECPS; test: Standard PECPS enzyme reaction, acceptance of starter-CoA; format: biochemical, Aquilaria sinensis; details: condensation with 4-hydroxyphenylpropionyl-β-diketide acid
Method: The standard reaction mixture contained 26 nmol of starter-CoA (4-hydroxyphenylpropionyl-CoA/benzoyl-CoA/phenylpropionyl-CoA/2-hydroxybenzoyl-CoA/3-hydroxybenzoyl-CoA/4-hydroxybenzoyl-CoA), 29 nmol of malonyl-CoA/benzoyl-β-diketide acid/4-hydroxyphenylpropionyl-β-diketide acid (note: before β-diketide acids were added to the reaction buffer, they were first dissolved in dimethyl sulfoxide to a final concentration of 2.9 mM), and 0.4 nmol of the purified recombinant enzyme, in 100 mM KPB (pH 7.5) for a final volume of 500 μL. Incubations were performed at 37 °C for 12 h and terminated by the addition of 20 μL of 20% HCl. The reaction solution was then extracted three times with 800 μL of ethyl acetate. The organic layers were combined, evaporated to dryness with nitrogen, and dissolved in 50 μL of MeOH for LCMS-IT-TOF (Shimadzu, Japan) analysis. The HPLC was equipped with an Agilent Eclipse XDB C18 column (250 × 4.6 mm I.D., 5 μm) and eluted at a flow rate of 1.0 mL/min. For the standard assay, gradient elution was performed with H2O and acetonitrile: 0–10 min, 30% acetonitrile; 10–20 min, 30–60% acetonitrile; 20–25 min, 60–70% acetonitrile; 25–30 min, 70–80% acetonitrile; 30–35 min, 80–100% acetonitrile; 35–40 min, 100% acetonitrile.

[6] = target: 2-(2-phenylethyl)chromone precursor synthase (PECPS), wild type, recombinant (Aquilaria sinensis); test: SEC; purified recombinant PECPS; approximately 86 kDa against a calculated 43 kDa for the monomer (Supplementary Fig. 4b); column and buffer of this run not told
[7] = target: PECPS A210E (Aquilaria sinensis, UniProt A0A385MEG6, A210E); test: ITC binding to PECPS A210E mutant
Sequence of PECPS A210E (A0A385MEG6 entry or part of it A210E): as the sequence (A0A385MEG6 entry or part of it) above, with A210E counted along it
Method: as §1
(§2) Plasmids expressing the PECPS mutants (A210E, F340W, N199L, and N199F) were generated by the Fast Mutagenesis System ([…] BIOTECH) according to the manufacturer’s instructions, using designed primers (Supplementary Table 5). The mutant enzymes were expressed, extracted, and purified by the same procedure as that for the wild type PECPS, and used in the enzyme assay and for crystallization.

[8] = target: PECPS F340W (Aquilaria sinensis, UniProt A0A385MEG6, F340W); test: ITC binding to PECPS F340W mutant
Sequence of PECPS F340W (A0A385MEG6 entry or part of it F340W): as the sequence (A0A385MEG6 entry or part of it) above, with F340W counted along it
Method: as §1, §2

[9] = target: PECPS N199L (Aquilaria sinensis, UniProt A0A385MEG6, N199L); test: ITC binding to PECPS N199L mutant
Sequence of PECPS N199L (A0A385MEG6 entry or part of it N199L): as the sequence (A0A385MEG6 entry or part of it) above, with N199L counted along it
Method: as §1, §2

[10] = target: PECPS N199F (Aquilaria sinensis, UniProt A0A385MEG6, N199F); test: ITC binding to PECPS N199F mutant
Sequence of PECPS N199F (A0A385MEG6 entry or part of it N199F): as the sequence (A0A385MEG6 entry or part of it) above, with N199F counted along it
Method: as §1, with “Representative ITC thermograms and isotherm plots for experiments can be found in Supplementary Fig. 35.” left out

[11] = system: NaCl-stressed A. sinensis cells; test: Substrate feeding to NaCl-stressed A. sinensis suspension cells, LC-MS; format: cell-based, Aquilaria sinensis; details: NaCl-stressed A. sinensis cells fed with substrate
Method: To verify the aforementioned hypothesis that diarylpentanoid is the common precursor of PECs, substrate-feeding experiments were performed. First, a putative innate-substrate, 5-(4-hydroxyphenyl)-1-phenylpentane-1,3-dione (2), was fed to NaCl-stressed A. sinensis cells, and its metabolites were carefully analyzed by LC–MS. […] Next, the fluorine-containing nonphysiological substrate 5-(4-F-phenyl)-1-phenylpentane-1,3-dione (F-2) was fed to NaCl-stressed A. sinensis cells. As a result, 10 fluorinated PECs (C01–C10) were successfully obtained by LC–MS guided separation and purification (Fig. 2b and Supplementary Fig. 8), and the structures of C01–C06 were unequivocally determined by extensive spectroscopic techniques, including ^1H-NMR, ^13C-NMR and HRESI-MS (Supplementary Figs. 9–14 and Supplementary Tables 2 and 3). Unfortunately, attempts to elucidate the structures of compounds C07–C10 by NMR techniques were complicated by their small yields. […]
Robustly growing suspension cells (200 mL × 10) were treated with NaCl (final concentration 150 mM) and immediately fed the fluorine-labeled substrate F-2 (20 mg × 10). […] Fluorinated PECs could be detected from the crude residue by LC–MS (Supplementary Fig. 8). […]

[12] = Non-enzymatic conversion of oxidoagarochromone C in aqueous methanol, HPLC; format: physicochemical; details: methanol aqueous solution, room temperature
Method: Figure 19. […]
HPLC chromatograms were recorded on an Agilent ZORBAXSB C18 column (250 mm × 4.6 mm, I.D., 5 μm) eluted with H2O and acetonitrile in an isocratic mode (0–30 min, 30% acetonitrile; flow rate 1.0 mL/min). Oxidoagarochromone C (S) was dissolved in 50% aqueous methanol and kept at room temperature. ATC-type PECs (1–5) converted from the substrate (S) via the non-enzymatic opening of the epoxy rings were readily apparent at 12 h and 36 h. Given that the structures of compounds 1-5 were tentatively identified by HRESI MS, the presence of methyl groups in compounds 2 and 5 is also possible on other hydroxyl groups formed by the opening of the epoxy rings, and the structures of 3 and 4 may be […]

Molecule: [Cl-].[Na+] [NaCl]
Relative expression level of PECPS protein (PECPS/GAPDH), Mean ([1]; 0 h): 0.2667
Relative expression level of PECPS protein (PECPS/GAPDH), Mean ([1]; 24 h): 0.4551
Relative expression level of PECPS protein (PECPS/GAPDH), Mean ([1]; 48 h): 1.257
Relative expression level of PECPS protein (PECPS/GAPDH), Mean ([1]; 72 h): 1.846
Relative expression level of PECPS protein (PECPS/GAPDH), Mean ([1]; 96 h): 1.18
Relative expression level of PECPS (qRT-PCR), Mean ([2]; 0 h): 0.3162
Relative expression level of PECPS (qRT-PCR), Mean ([2]; 24 h): 0.7432
Relative expression level of PECPS (qRT-PCR), Mean ([2]; 48 h): 2.33
Relative expression level of PECPS (qRT-PCR), Mean ([2]; 72 h): 6.264
Relative expression level of PECPS (qRT-PCR), Mean ([2]; 96 h): 1.556

Molecule: O=C(CCc1ccccc1)CC(=O)c1ccccc1 [1,5-diphenylpentane-1,3-dione]
biotransformation in wild type N. benthamiana leaves [4]: converted to PECs

Molecule: CC(C)(COP(=O)(O)OP(=O)(O)OC[C@H]1O[C@@H](n2cnc3c(N)ncnc32)[C@H](O)[C@@H]1OP(=O)(O)O)[C@@H](O)C(=O)NCCC(=O)NCCSC(=O)CCc1ccc(O)cc1 [4-hydroxyphenylpropionyl-CoA]
-TΔS ([3]; ITC): -3.748 ± 0.464 kcal/mol
n (stoichiometry) ([3]; ITC): 1.10±0.12
ΔH ([3]; ITC): -2.968 ± 0.425 kcal/mol
ΔS ([3]; ITC): 50.56 ± 6.28 J/molꞏK
Ka ([3]; ITC, listed as 4-hydorxyphenylpropionyl-CoA): 54.06 ± 4.14 mM⁻¹
Kd ([3]; Supplementary Table 4, ITC): 18.6 ± 1.37 µM
Kd [7]: 40.1 ± 4.52 µM
binding affinity, times lower than that of the wild-type ([7]; A210E vs wild type PECPS, ITC): 2.1 times
-TΔS ([7]; ITC, mean ± SD (n = 3)): -2.483 ± 0.397 kcal/mol
Ka ([7]; ITC, mean ± SD (n = 3)): 25.12 ± 2.98 mM⁻¹
n (stoichiometry) ([7]; ITC, mean ± SD (n = 3)): 0.99±0.02
ΔG ([7]; ITC, mean ± SD (n = 3)): -6.243 ± 0.0717 kcal/mol
ΔH ([7]; ITC, mean ± SD (n = 3)): -3.76 ± 0.323 kcal/mol
ΔS ([7]; ITC, mean ± SD (n = 3)): 33.49 ± 5.34 J/molꞏK
Kd [8]: 12.4 ± 2.07 µM
-TΔS ([8]; ITC, mean ± SD (n = 3)): -5.251 ± 0.28 kcal/mol
Ka ([8]; ITC, mean ± SD (n = 3)): 82.07 ± 12.96 mM⁻¹
n (stoichiometry) ([8]; ITC, mean ± SD (n = 3)): 0.91±0.06
ΔG ([8]; ITC, mean ± SD (n = 3)): -6.969 ± 0.1 kcal/mol
ΔH ([8]; ITC, mean ± SD (n = 3)): -1.72 ± 0.177 kcal/mol
ΔS ([8]; ITC, mean ± SD (n = 3)): 70.83 ± 3.75 J/molꞏK
Kd [9]: 120 ± 10.8 µM
Ka ([9]; ITC, mean ± SD (n = 3)): 8.35 ± 0.71 mM⁻¹
n (stoichiometry) ([9]; ITC, mean ± SD (n = 3)): 0.87±0.06
ΔG ([9]; ITC, mean ± SD (n = 3)): -5.564 ± 0.055 kcal/mol
ΔH ([9]; ITC, mean ± SD (n = 3)): -4.708 ± 0.402 kcal/mol
ΔS ([9]; ITC, mean ± SD (n = 3)): 11.50 ± 4.86 J/molꞏK
binding affinity, times weaker than that of wild type PECPS ([9]; N199L vs wild type PECPS, ITC): 6.5 times
Kd [10]: ~1000 µM

Molecule: O=C(CCc1ccc(O)cc1)CC(=O)c1ccccc1 [compound 2, 5-(4-hydroxyphenyl)-1-phenylpentane-1,3-dione]
accumulation of PECs (P1–P5) in substrate-fed cells [11]: visibly increased
biotransformation in wild type N. benthamiana leaves [4]: converted to PECs

Molecule: oxidoagarochromone C
products from the opening of the epoxy ring (non-enzymatic conversion to ATC-type PECs) [12]: readily detected

Next, values leading:

Kd ([3]; ITC, 100 mM KPB pH 7.5, 37 °C): ~1000 µM
Molecule: CC(C)(COP(=O)(O)OP(=O)(O)OC[C@H]1O[C@@H](n2cnc3c(N)ncnc32)[C@H](O)[C@@H]1OP(=O)(O)O)[C@@H](O)C(=O)NCCC(=O)NCCSC(=O)c1ccccc1 [benzoyl-CoA]

acceptance as starter by PECPS to produce the C6–C5–C6 scaffold [5]: not accepted
Molecule: CC(C)(COP(=O)(O)OP(=O)(O)OC[C@H]1O[C@@H](n2cnc3c(N)ncnc32)[C@H](O)[C@@H]1OP(=O)(O)O)[C@@H](O)C(=O)NCCC(=O)NCCSC(=O)c1ccccc1O [2-hydroxybenzoyl-CoA]

stoichiometry N [6]: 2
Molecule: 2-(2-phenylethyl)chromone precursor synthase (PECPS), wild type, recombinant (enzyme)

acceptance as starter by PECPS to produce the C6–C5–C6 scaffold [5]: could accept
Molecule: CC(C)(COP(=O)(O)OP(=O)(O)OC[C@H]1O[C@@H](n2cnc3c(N)ncnc32)[C@H](O)[C@@H]1OP(=O)(O)O)[C@@H](O)C(=O)NCCC(=O)NCCSC(=O)c1ccc(O)cc1 [4-hydroxybenzoyl-CoA]

acceptance as starter by PECPS to produce the C6–C5–C6 scaffold [5]: could accept
Molecule: CC(C)(COP(=O)(O)OP(=O)(O)OC[C@H]1O[C@@H](n2cnc3c(N)ncnc32)[C@H](O)[C@@H]1OP(=O)(O)O)[C@@H](O)C(=O)NCCC(=O)NCCSC(=O)c1cccc(O)c1 [3-hydroxybenzoyl-CoA]
